# Data taken from ChEMBL document CHEMBL1201862, “PubChem BioAssay data set” (2004).
# Active and inactive are the calls of the source.
# What was measured:
# SUMO-activating enzyme = SUMO-activating enzyme (Homo sapiens, UniProt Q9UBT2); test: blockers of SAE1/SAE2–UBC9 SUMO transfer – biochemical, HTRF, uHTS, primary screen (AID 2006); type: protein-complex assay
# [1] = biological target: T1, Sentrin-specific protease 6 (Homo sapiens, UniProt Q9GZR1); type: functional;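 also: Luminescence-based dose-response confirmatory assay of SENP6 inhibition, following up an ultra-high-throughput screen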
# T1 sequence (Q9GZR1 whole entry): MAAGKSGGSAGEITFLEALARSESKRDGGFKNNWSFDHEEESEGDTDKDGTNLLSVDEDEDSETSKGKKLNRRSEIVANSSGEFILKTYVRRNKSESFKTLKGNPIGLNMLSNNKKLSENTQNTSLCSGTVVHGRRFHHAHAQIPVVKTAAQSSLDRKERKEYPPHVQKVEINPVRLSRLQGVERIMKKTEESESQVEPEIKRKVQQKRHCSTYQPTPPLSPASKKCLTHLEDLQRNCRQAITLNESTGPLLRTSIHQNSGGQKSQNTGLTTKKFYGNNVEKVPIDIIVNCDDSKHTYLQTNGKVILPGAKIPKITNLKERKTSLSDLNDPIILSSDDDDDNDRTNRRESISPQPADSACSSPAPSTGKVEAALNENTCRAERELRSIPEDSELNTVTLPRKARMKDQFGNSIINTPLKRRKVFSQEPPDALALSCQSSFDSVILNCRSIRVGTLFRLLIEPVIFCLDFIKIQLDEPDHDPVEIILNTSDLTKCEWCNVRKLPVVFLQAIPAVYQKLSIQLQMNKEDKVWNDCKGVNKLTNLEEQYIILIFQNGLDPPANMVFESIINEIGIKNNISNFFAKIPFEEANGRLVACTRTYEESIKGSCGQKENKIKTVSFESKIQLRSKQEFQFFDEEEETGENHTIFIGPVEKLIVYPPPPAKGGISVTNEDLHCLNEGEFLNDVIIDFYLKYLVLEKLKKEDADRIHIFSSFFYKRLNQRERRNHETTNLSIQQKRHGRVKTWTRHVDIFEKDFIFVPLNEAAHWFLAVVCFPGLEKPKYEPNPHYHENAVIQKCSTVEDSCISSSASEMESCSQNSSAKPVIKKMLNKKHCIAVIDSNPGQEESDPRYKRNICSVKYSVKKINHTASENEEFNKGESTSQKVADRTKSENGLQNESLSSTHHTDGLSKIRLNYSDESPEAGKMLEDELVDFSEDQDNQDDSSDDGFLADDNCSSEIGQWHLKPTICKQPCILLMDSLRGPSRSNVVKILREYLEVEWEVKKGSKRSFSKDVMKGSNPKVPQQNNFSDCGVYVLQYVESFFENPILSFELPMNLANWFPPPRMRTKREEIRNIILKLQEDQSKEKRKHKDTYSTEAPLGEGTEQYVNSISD
# H4 = test: Luminescence Cell-Based Dose Response HTS to Identify Activators of 5'UTR Stem-Loop Driven Prion Protein mRNA Translation in H4 Neuroglioblastoma Cells. [Related pubchem assays: 1829 (Project Summary), 1814 (Primary HTS)]; type: functional; conditions: Homo sapiens
# [2] = biological target: T2, Sphingosine 1-phosphate receptor 4 (Homo sapiens, UniProt O95977); test: Late stage fluorescence dose response cell-based screening assay for antagonists of the Sphingosine 1-Phosphate Receptor 4 (S1P4). [Related pubchem assays: 1524 (Confirmation screen (S1P4 antagonists).), 1510 (Primary screen (S1P4 antagonists).), 1853 (Summary AID (S1P4 antagonists).), 1692 (Dose response screen (S1P4 antagonists).)]; type: functional
# T2 sequence (O95977 whole entry): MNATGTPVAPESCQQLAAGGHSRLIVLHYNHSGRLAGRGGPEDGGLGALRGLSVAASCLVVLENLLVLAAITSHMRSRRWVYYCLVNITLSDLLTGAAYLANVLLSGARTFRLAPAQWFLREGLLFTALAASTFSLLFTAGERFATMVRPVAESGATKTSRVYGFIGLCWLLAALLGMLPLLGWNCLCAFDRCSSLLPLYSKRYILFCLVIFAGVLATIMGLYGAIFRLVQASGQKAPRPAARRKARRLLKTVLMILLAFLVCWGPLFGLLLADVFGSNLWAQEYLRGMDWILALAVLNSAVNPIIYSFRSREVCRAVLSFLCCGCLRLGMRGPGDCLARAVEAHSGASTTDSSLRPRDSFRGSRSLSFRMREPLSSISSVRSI
# [3] = biological target: T2, Sphingosine 1-phosphate receptor 4; test: Fluorescence dose response cell-based high throughput screening assay for antagonists of the Sphingosine 1-Phosphate Receptor 4 (S1P4). [Related pubchem assays: 1524 (Confirmation in triplicates.), 1510 (Primary screen.)]; type: functional
# [4] = biological target: Sphingosine 1-phosphate receptor 1 (Homo sapiens, UniProt P21453); type: functional;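 also: Tango beta-arrestin reporter U2OS cells stimulated with S1P near its EC80; inhibitor potency meaning antagonism of receptor activation by the natural agonist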
# Chain of Sphingosine 1-phosphate receptor 1 (P21453 whole entry): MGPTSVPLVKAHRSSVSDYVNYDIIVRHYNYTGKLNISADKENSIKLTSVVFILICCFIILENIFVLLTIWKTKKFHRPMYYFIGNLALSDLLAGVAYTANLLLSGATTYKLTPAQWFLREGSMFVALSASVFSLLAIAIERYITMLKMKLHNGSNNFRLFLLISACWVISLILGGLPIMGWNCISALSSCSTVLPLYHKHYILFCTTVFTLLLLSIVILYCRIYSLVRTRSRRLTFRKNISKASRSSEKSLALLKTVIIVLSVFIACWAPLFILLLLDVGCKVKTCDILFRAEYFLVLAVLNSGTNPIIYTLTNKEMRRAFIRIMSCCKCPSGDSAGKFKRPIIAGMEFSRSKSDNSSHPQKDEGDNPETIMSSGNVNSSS
# [5] = HepG2 cell cytotoxicity, dose response, cytotoxicity control for non-replicating M. tuberculosis project (AID 489018); type: functional; conditions: Mycobacterium tuberculosis
# [6] = Vero E6 cell cytotoxicity, dose response, cytotoxicity control for non-replicating M. tuberculosis project, secondary assay (AID 492998); type: functional, VeroE6; conditions: Vero C1008
# cells = type: functional
# [7] = biological target: Heat shock protein HSP 90-alpha (Homo sapiens, UniProt P07900); type: functional, organism-based
# Beta Lactamase = Beta Lactamase (Pseudomonas aeruginosa, UniProt Q932Y6); test: BLA reporter interference, concentration series – BLA reporter cells, FRET fluorescence, artefact control for TLR9-MyD88 binding inhibitor project, dose response (AID 588341); type: cell-based;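 also: cell based assay in CHO-K1 cells stably expressing beta-lactamase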
# Chain of Beta Lactamase (Q932Y6 whole entry): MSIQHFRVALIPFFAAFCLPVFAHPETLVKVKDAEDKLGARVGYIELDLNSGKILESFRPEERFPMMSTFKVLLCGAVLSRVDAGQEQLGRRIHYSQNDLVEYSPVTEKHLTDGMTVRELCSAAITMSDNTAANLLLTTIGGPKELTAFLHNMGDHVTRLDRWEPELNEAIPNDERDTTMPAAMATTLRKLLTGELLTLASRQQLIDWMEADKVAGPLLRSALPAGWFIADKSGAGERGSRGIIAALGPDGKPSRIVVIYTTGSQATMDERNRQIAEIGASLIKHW
# [8] = reduced cellular PGC1a acetyl-lysine signal – cell-based, cherry-picked samples, dose response (AID 720514); type: functional;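 also: potency may reflect raised or lowered acetylation signal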
# [9] = biological target: T3, Heat shock factor protein 1 (Mus musculus, UniProt P38532); test: decrease of HSF1-responsive luciferase luminescence – cell-based, NIH3T3, dose retest, confirmation (AID 2382); type: functional;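 also: NIH3T3 fibroblasts with HSF1-driven luciferase reporter stressed by proteasome inhibitor MG132; luminescence from HSF1-driven luciferase expression after 8 hours of MG132 stress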
# T3 sequence (P38532 whole entry): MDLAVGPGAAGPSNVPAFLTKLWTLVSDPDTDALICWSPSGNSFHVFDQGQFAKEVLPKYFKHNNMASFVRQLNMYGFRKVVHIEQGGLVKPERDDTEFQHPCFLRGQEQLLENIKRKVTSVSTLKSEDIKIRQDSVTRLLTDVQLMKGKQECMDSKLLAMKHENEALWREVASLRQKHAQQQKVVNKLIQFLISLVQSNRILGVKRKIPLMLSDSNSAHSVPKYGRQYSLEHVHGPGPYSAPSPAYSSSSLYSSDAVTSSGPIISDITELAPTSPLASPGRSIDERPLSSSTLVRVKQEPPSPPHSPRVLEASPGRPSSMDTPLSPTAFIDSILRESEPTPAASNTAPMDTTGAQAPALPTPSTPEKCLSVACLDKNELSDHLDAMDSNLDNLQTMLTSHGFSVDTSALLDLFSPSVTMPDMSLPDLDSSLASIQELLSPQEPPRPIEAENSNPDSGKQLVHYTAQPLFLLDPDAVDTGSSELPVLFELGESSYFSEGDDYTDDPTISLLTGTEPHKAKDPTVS
# Chain of SUMO-activating enzyme (Q9UBE0 whole entry): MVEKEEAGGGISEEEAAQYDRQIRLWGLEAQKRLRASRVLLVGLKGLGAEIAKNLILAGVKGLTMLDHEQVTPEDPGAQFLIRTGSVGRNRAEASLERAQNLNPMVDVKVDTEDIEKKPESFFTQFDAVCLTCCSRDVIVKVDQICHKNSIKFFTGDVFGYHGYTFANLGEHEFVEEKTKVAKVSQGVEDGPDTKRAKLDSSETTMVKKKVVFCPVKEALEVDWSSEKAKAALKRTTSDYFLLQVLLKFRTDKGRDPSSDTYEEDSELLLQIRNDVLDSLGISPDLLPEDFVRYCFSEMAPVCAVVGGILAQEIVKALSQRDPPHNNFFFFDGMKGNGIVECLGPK
# Chain of SUMO-activating enzyme (Q9UBT2 whole entry): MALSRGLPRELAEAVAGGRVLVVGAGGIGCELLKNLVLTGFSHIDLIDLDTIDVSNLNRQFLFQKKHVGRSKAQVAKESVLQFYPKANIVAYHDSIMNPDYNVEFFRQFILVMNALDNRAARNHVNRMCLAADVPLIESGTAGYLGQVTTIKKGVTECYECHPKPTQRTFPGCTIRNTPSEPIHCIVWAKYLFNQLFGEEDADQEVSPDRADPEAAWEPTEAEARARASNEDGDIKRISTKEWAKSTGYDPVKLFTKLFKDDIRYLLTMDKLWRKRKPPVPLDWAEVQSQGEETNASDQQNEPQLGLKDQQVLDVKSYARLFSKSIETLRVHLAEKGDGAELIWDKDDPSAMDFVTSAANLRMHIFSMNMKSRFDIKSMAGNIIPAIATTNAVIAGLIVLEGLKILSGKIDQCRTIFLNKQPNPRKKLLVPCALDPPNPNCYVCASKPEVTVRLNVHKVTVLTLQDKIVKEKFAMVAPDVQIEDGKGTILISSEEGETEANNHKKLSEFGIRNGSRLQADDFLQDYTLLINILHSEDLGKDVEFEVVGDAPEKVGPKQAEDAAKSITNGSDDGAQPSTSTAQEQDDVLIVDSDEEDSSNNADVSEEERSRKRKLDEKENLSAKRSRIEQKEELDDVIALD
Compound,IC50 (SUMO-activating enzyme),IC50 [1],EC50 (H4),IC50 [2],IC50 [3],IC50 [4],CC50 [5],CC50 [6],IC50 (cells),AC50 [7],IC50 (Beta Lactamase),AC50 [8],EC50 [9]
O=C1C=C(Nc2ccccc2)c2ccccc2C1=O,20.7 µM (active),5.8 µM (active),,,,,,,,,,,
O=C(Nc1ccccc1)c1nnsc1[S+]([O-])c1ccc(Cl)cc1 (centres undefined),,,24 µM (active),12 µM (not active),1.15 µM (active),> 49.8 µM (not active),19.1 µM (active),13.1 µM (active),13.1 µM (active),< 0.195 µM (active),11.9 µM (inactive),10.3 µM (active),
CC1OC(Nc2cccc3ccccc23)C(O)C(O)C1O (centres undefined),,3.63 µM (active),,,,,,,,,,,> 195 µM (not active)
